Measured values published in PubChem BioAssay (NCI).
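Exposure lasted 48 hours, with cells grown in 96-well plates and compounds tested at five concentrations. At the TGI there is no net growth.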

Tests used:
Test in all cases: NCI-60 cell line screen, 48 h
[1] = test system: UO-31 renal
[2] = test system: K-562 leukemia
[3] = test system: DMS 273 small cell lung
[4] = test system: UACC-62 melanoma
[5] = test system: COLO 205 colon
[6] = test system: M19-MEL melanoma
[7] = test system: SW-620 colon
[8] = test system: NCI-H522 lung
[9] = test system: ACHN renal
[10] = test system: EKVX NSCLC
[11] = test system: RXF 393 renal
[12] = test system: SF-539 CNS
[13] = test system: HOP-18 NSCLC
[14] = test system: SK-OV-3 ovarian
[15] = test system: HOP-62 NSCLC
[16] = test system: KM20L2 colon
[17] = test system: MALME-3M melanoma
[18] = test system: HCT-116 colon
[19] = test system: U251 CNS
[20] = test system: A549 NSCLC
[21] = test system: SN12C renal
[22] = test system: DMS 114 small cell lung
[23] = test system: KM12 colon
[24] = test system: SNB-75 CNS
[25] = test system: CCRF-CEM leukemia
[26] = test system: HCT-15 colon
[27] = test system: OVCAR-8 ovarian
[28] = test system: OVCAR-3 ovarian
[29] = test system: UACC-257 melanoma
[30] = test system: SF-295 CNS
[31] = test system: MOLT-4 leukemia
[32] = test system: DLD-1 colon
[33] = test system: NCI-H460 lung
[34] = test system: SK-MEL-2 melanoma
[35] = test system: M14 melanoma
[36] = test system: HL-60(TB) leukemia
[37] = test system: HT29 colon
[38] = test system: SK-MEL-5 melanoma
[39] = test system: SK-MEL-28 melanoma
[40] = test system: LOX IMVI melanoma
[41] = test system: NCI-H23 lung
[42] = test system: RPMI-8226 leukemia
[43] = test system: IGROV1 ovarian
[44] = test system: 786-0 renal
[45] = test system: TK-10 renal
[46] = test system: NCI-H226 lung
[47] = test system: SF-268 CNS
[48] = test system: LXFL 529 NSCLC
[49] = test system: SNB-19 CNS
[50] = test system: OVCAR-4 ovarian
[51] = test system: OVCAR-5 ovarian
[52] = test system: HCC-2998 colon
[53] = test system: CAKI-1 renal
[54] = test system: SNB-78 CNS
[55] = test system: A498 renal
[56] = test system: HOP-92 NSCLC
[57] = test system: SR leukemia

Structure (SMILES): Cc1ccccc1NC(=O)c1cc2cc(N=Nc3ccccc3C(=O)O)ccc2oc1=O
- TGI [1]: 50.6 µM
- TGI [2]: 79.5 µM
- TGI [3]: 42.5 µM
- TGI [4]: 17.9 µM
- TGI [5]: 27.8 µM
- TGI [6]: 27.3 µM
- TGI [7]: > 100 µM
- TGI [8]: 29.5 µM
- TGI [9]: > 100 µM
- TGI [10]: > 100 µM
- TGI [11]: 33.9 µM
- TGI [12]: 37.5 µM
- TGI [13]: 35.1 µM
- TGI [14]: 68.7 µM
- TGI [15]: 43.3 µM
- TGI [16]: 32.1 µM
- TGI [17]: 25 µM
- TGI [18]: 57.9 µM
- TGI [19]: 51.5 µM
- TGI [20]: > 100 µM
- TGI [21]: 53.3 µM
- TGI [22]: 41.2 µM
- TGI [23]: 27.8 µM
- TGI [24]: 35.6 µM
- TGI [25]: 80.4 µM
- TGI [26]: 36.7 µM
- TGI [27]: > 100 µM
- TGI [28]: > 100 µM
- TGI [29]: 24.1 µM
- TGI [30]: 39.2 µM
- TGI [31]: 83.5 µM
- TGI [32]: 54.3 µM
- TGI [33]: 60 µM
- TGI [34]: 47.7 µM
- TGI [35]: 37.7 µM
- TGI [36]: 55.6 µM
- TGI [37]: 38.3 µM
- TGI [38]: 30.7 µM
- TGI [39]: 41.2 µM
- TGI [40]: 41.6 µM
- TGI [41]: 12.2 µM
- TGI [42]: 60.2 µM
- TGI [43]: 65.2 µM
- TGI [44]: 69.6 µM
- TGI [45]: > 100 µM
- TGI [46]: 44 µM

Structure (SMILES): CC[C@]1(O)CC2CN(CCCc3c([nH]c4ccccc34)[C@@](C(=O)OC)(c3cc4c(cc3OC)N(C)C3C45CCN4CC=C[C@](CC)(C45)C(OC(C)=O)[C@@]3(O)C(=O)OC)C2)C1 (stereo not given in full)
- TGI [1]: > 10 µM
- TGI [2]: > 10 µM
- TGI [3]: > 10 µM
- TGI [47]: > 3.13 µM
- TGI [4]: > 10 µM
- TGI [48]: > 10 µM
- TGI [49]: 9.83 µM
- TGI [5]: > 7.86 µM
- TGI [6]: > 10 µM
- TGI [7]: > 10 µM
- TGI [8]: 0.393 µM
- TGI [9]: > 10 µM
- TGI [10]: > 8.04 µM
- TGI [50]: > 10 µM
- TGI [51]: > 10 µM
- TGI [11]: 4.41 µM
- TGI [12]: 6.03 µM
- TGI [13]: 0.73 µM
- TGI [14]: > 7.95 µM
- TGI [15]: > 3.4 µM
- TGI [52]: 8.2 µM
- TGI [16]: 1.05 µM
- TGI [17]: > 3.16 µM
- TGI [53]: > 10 µM
- TGI [18]: > 10 µM
- TGI [54]: > 3.04 µM
- TGI [19]: > 10 µM
- TGI [20]: > 10 µM
- TGI [21]: > 10 µM
- TGI [23]: > 10 µM
- TGI [55]: 4.54 µM
- TGI [24]: 5.7 µM
- TGI [25]: > 10 µM
- TGI [56]: > 10 µM
- TGI [26]: > 10 µM
- TGI [27]: > 10 µM
- TGI [28]: > 2.12 µM
- TGI [29]: > 10 µM
- TGI [30]: > 2.13 µM
- TGI [31]: > 10 µM
- TGI [32]: > 10 µM
- TGI [33]: > 10 µM
- TGI [34]: > 8.05 µM
- TGI [35]: 4.01 µM
- TGI [36]: > 5.65 µM
- TGI [37]: > 3.44 µM
- TGI [38]: > 6.15 µM
- TGI [39]: > 10 µM
- TGI [40]: > 10 µM
- TGI [41]: 3.77 µM
- TGI [42]: > 8.84 µM
- TGI [43]: > 10 µM
- TGI [44]: > 10 µM
- TGI [45]: > 10 µM
- TGI [46]: > 3.01 µM

Structure (SMILES): CC12CCC(=O)N1c1cnccc1N2 (stereo not given)
- TGI [1]: > 100 µM
- TGI [2]: > 100 µM
- TGI [3]: > 100 µM
- TGI [47]: > 100 µM
- TGI [4]: > 100 µM
- TGI [48]: > 100 µM
- TGI [49]: > 100 µM
- TGI [5]: > 100 µM
- TGI [7]: > 100 µM
- TGI [8]: > 100 µM
- TGI [57]: > 100 µM
- TGI [9]: > 100 µM
- TGI [10]: > 100 µM
- TGI [50]: > 100 µM
- TGI [51]: > 100 µM
- TGI [12]: > 100 µM
- TGI [14]: > 100 µM
- TGI [15]: > 100 µM
- TGI [52]: > 100 µM
- TGI [16]: > 100 µM
- TGI [17]: > 100 µM
- TGI [53]: > 100 µM
- TGI [18]: > 100 µM
- TGI [54]: > 100 µM
- TGI [19]: > 100 µM
- TGI [20]: > 100 µM
- TGI [21]: > 100 µM
- TGI [22]: > 100 µM
- TGI [23]: > 100 µM
- TGI [55]: > 100 µM
- TGI [24]: > 100 µM
- TGI [25]: > 100 µM
- TGI [56]: > 100 µM
- TGI [26]: > 100 µM
- TGI [27]: > 100 µM
- TGI [28]: > 100 µM
- TGI [29]: > 100 µM
- TGI [30]: > 100 µM
- TGI [31]: > 100 µM
- TGI [32]: > 100 µM
- TGI [33]: > 100 µM
- TGI [34]: > 100 µM
- TGI [35]: > 100 µM
- TGI [36]: > 100 µM
- TGI [37]: > 100 µM
- TGI [38]: > 100 µM
- TGI [39]: > 100 µM
- TGI [41]: > 100 µM
- TGI [42]: > 100 µM
- TGI [43]: > 100 µM
- TGI [45]: > 100 µM

Structure (SMILES): Nc1nc[n+](Cc2ccccc2)c2ncn(Cc3ccccc3)c12
- TGI [1]: > 100 µM
- TGI [2]: > 100 µM
- TGI [3]: > 100 µM
- TGI [47]: > 100 µM
- TGI [4]: > 100 µM
- TGI [48]: > 100 µM
- TGI [49]: > 100 µM
- TGI [5]: 82.8 µM
- TGI [6]: > 100 µM
- TGI [7]: > 100 µM
- TGI [8]: > 100 µM
- TGI [57]: > 100 µM
- TGI [9]: > 100 µM
- TGI [10]: > 100 µM
- TGI [50]: > 100 µM
- TGI [51]: > 100 µM
- TGI [11]: 71 µM
- TGI [12]: > 100 µM
- TGI [13]: > 100 µM
- TGI [14]: > 100 µM
- TGI [15]: > 100 µM
- TGI [52]: 60.4 µM
- TGI [16]: > 100 µM
- TGI [17]: > 100 µM
- TGI [53]: > 100 µM
- TGI [18]: > 100 µM
- TGI [54]: > 100 µM
- TGI [19]: > 100 µM
- TGI [20]: > 100 µM
- TGI [21]: > 100 µM
- TGI [23]: > 100 µM
- TGI [55]: > 100 µM
- TGI [24]: > 100 µM
- TGI [25]: > 100 µM
- TGI [56]: 96.6 µM
- TGI [26]: > 100 µM
- TGI [27]: > 100 µM
- TGI [28]: > 100 µM
- TGI [29]: > 100 µM
- TGI [30]: > 100 µM
- TGI [32]: > 100 µM
- TGI [33]: > 100 µM
- TGI [34]: > 100 µM
- TGI [35]: 86.3 µM
- TGI [36]: > 100 µM
- TGI [37]: > 100 µM
- TGI [38]: > 100 µM
- TGI [39]: > 100 µM
- TGI [40]: > 100 µM
- TGI [41]: > 100 µM
- TGI [43]: > 100 µM
- TGI [44]: > 100 µM
- TGI [45]: > 100 µM
- TGI [46]: > 100 µM

Structure (SMILES): CC(C)(c1cn(Cc2ccccc2)c2ccccc12)c1cn(Cc2ccccc2)c2ccccc12
- TGI [2]: > 100 µM
- TGI [47]: > 100 µM
- TGI [4]: > 100 µM
- TGI [48]: > 100 µM
- TGI [5]: > 100 µM
- TGI [6]: > 100 µM
- TGI [7]: > 100 µM
- TGI [8]: > 100 µM
- TGI [57]: > 100 µM
- TGI [9]: > 100 µM
- TGI [10]: > 100 µM
- TGI [50]: > 100 µM
- TGI [51]: > 100 µM
- TGI [12]: > 100 µM
- TGI [14]: > 100 µM
- TGI [15]: > 100 µM
- TGI [53]: > 100 µM
- TGI [18]: > 100 µM
- TGI [54]: > 100 µM
- TGI [19]: > 100 µM
- TGI [20]: > 100 µM
- TGI [21]: 5.07 µM
- TGI [22]: > 100 µM
- TGI [23]: > 100 µM
- TGI [24]: 99.6 µM
- TGI [25]: > 100 µM
- TGI [56]: > 100 µM
- TGI [26]: > 100 µM
- TGI [27]: > 100 µM
- TGI [28]: > 100 µM
- TGI [30]: > 100 µM
- TGI [31]: > 100 µM
- TGI [32]: > 100 µM
- TGI [33]: > 100 µM
- TGI [35]: > 100 µM
- TGI [36]: > 100 µM
- TGI [37]: > 100 µM
- TGI [38]: > 100 µM
- TGI [40]: > 100 µM
- TGI [41]: > 100 µM
- TGI [42]: > 100 µM
- TGI [43]: > 100 µM
- TGI [44]: > 100 µM
- TGI [46]: > 100 µM
